In PMC7926793, “Synthesis and Biological Evaluation of 1-(Diarylmethyl)-1H-1,2,4-triazoles and 1-(Diarylmethyl)-1H-imidazoles as a Novel Class of Anti-Mitotic Agent for Activity in Breast Cancer” (Pharmaceuticals, 2021):
Where “and” joins values, the source holds several entries; their conditions need not be identical. Equal values may be shown once. Read-outs that look alike come from different tables or passages of the source.

Legend:
[1] = tested on: MCF-7 human breast cancer cells; assay: alamarBlue cell viability assay; assay type: cell-based; settings: Homo sapiens, 72 h; for viability at 1 µM: MCF7, read-out: cell viability (viable cells)
Method: (§1) The human breast carcinoma cell line MCF-7 was purchased from the European Collection of Animal Cell Cultures (ECACC) and cultured in Eagles minimum essential medium with 10% foetal bovine serum, 2 mM L-glutamine, and 100 μg/mL penicillin/streptomycin. The medium was supplemented with 1% non-essential amino acids. The human breast carcinoma cell line MDA-MB-231 was purchased from the ECACC. MDA-MB-231 cells were maintained in Dulbecco’s modified Eagle’s medium (DMEM) supplemented with 10% (v/v) foetal bovine serum, 2 mM L-glutamine, and 100 μg/mL penicillin/streptomycin (complete medium). HL-60 cells were derived from a patient with acute myeloid leukaemia and were obtained from the ECACC (Salisbury, UK). Cells were cultured in RPMI-1640 Glutamax medium supplemented with 10% FCS media and 100 μg/mL penicillin/streptomycin. MCF-10A cells were obtained as a kind gift from Dr Susan McDonnell, School of Chemical and Bioprocess Engineering, University College Dublin and were cultured in Dulbecco’s Modified Eagle Medium: Nutrient Mixture F-12 (DMEM/F12; Gibco) supplemented with 5% horse serum (Invitrogen), 20 ng mL^−1 epidermal growth factor (Merck Millipore), 0.5 μg mL^−1 hydrocortisone (Sigma,-Aldrich, Arklow, Co. Wicklow, Ireland), 100 ng mL^−1 cholera toxin (Sigma, Aldrich, Arklow, Co. Wicklow, Ireland), 10 μg mL^−1 insulin (Sigma, Aldrich, Arklow, Co. Wicklow, Ireland), and penicillin/streptomycin 5000 U mL^−1 (1%)(Gibco, Biosciences, 3 Charlemont Terrace, Crofton Road, Dun Laoghaire, Co Dublin, A96 K7H7, Ireland). Cells were maintained at 37 °C in 5% CO2 in a humidified incubator. All cells were sub-cultured 3 times/week by trypsinisation using TrypLE Express (1×).
(§2) Cells were seeded at a density of 2.5 × 10^4 cells/well (MCF-7, MDA-MB-231, MCF-10A cells) and 1 × 10^4 cells/well (HL-60) in 96-well plates (200 μL per well). After 24 h, cells were then treated with either medium alone, vehicle control (1% ethanol (v/v)) or with serial dilutions of CA-4 (4a), phenstatin (7a) or selected compounds (0.001–100 μM) in triplicate. Cell proliferation for MCF-7, MDA-MB-231, and MCF-10A cells was analysed using the alamarBlue assay (Invitrogen Corp.) according to the manufacturer’s instructions. After 67–69 h, alamarBlue (10% (v/v)) was added to each well, and plates were incubated for 3–5 h at 37 °C in the dark. Fluorescence was read using a 96-well fluorimeter with excitation at 530 nm and emission at 590 nm. Results were expressed as percentage viability relative to vehicle control (100%).

[2] = tested on: MDA-MB-231 human breast cancer cells; assay: alamarBlue cell viability assay; assay type: cell-based; settings: read-out: Antiproliferative Activity MDA-MB-231 Cells IC50
Method: as §1, §2

[3] = toxicity evaluation, alamarBlue assay; assay type: cell-based, human; settings: human, MCF-10A cells
NCI 60 cell line panel = assay: NCI 60 cell line screen, panel means; assay type: cell-based, human; settings: for Mean Growth percentage: 60 cell line panel, single dose 10 µM; for mean growth: 10 μM
HL-60 (TB) = assay: NCI 60 cell line screen (Leukemia); assay type: cell-based, human; settings: for Growth percentage: single dose 10 µM
NCI-H23 = assay: NCI 60 cell line screen (Non-Small Cell Lung Cancer); assay type: cell-based, human; settings: for Growth percentage: NCI-H23, single dose 10 µM
HCT-116 = assay: NCI 60 cell line screen (Colon Cancer); assay type: cell-based, human; settings: for Growth percentage: HCT-116, single dose 10 µM
HT29 = assay: NCI 60 cell line screen (Colon Cancer); assay type: cell-based, human; settings: for Growth percentage: HT29, single dose 10 µM
SNB-75 = assay: NCI 60 cell line screen (CNS Cancer); assay type: cell-based, human; settings: SNB-75, single dose 10 µM
PC-3 = assay: NCI 60 cell line screen (Prostate cancer); assay type: cell-based, human; settings: for Growth percentage: PC-3, single dose 10 µM
MALME-3M = assay: NCI 60 cell line screen (Melanoma); assay type: cell-based, human; settings: single dose 10 µM
M14 = assay: NCI 60 cell line screen (Melanoma); assay type: cell-based, human; settings: for Growth percentage: M14, single dose 10 µM
UACC-62 = assay: NCI 60 cell line screen (Melanoma); assay type: cell-based, human; settings: for Growth percentage: UACC-62, single dose 10 µM
IGROV1 = assay: NCI 60 cell line screen (Ovarian Cancer); assay type: cell-based, human; settings: for Growth percentage: IGROV1, single dose 10 µM
OVCAR-8 = assay: NCI 60 cell line screen (Ovarian Cancer); assay type: cell-based, human; settings: for Growth percentage: OVCAR-8, single dose 10 µM
NCI/ADR-RES = assay: NCI 60 cell line screen (Ovarian Cancer); assay type: cell-based, human; settings: for Growth percentage: single dose 10 µM
SK-OV-3 = assay: NCI 60 cell line screen (Ovarian Cancer); assay type: cell-based, human; settings: for Growth percentage: SK-OV-3, single dose 10 µM
CAKI-1 = assay: NCI 60 cell line screen (Renal Cancer); assay type: cell-based, human; settings: for Growth percentage: CAKI-1, single dose 10 µM
MDA-MB-231/ATCC = assay: NCI 60 cell line screen (Breast Cancer); assay type: cell-based, human; settings: for Growth percentage: single dose 10 µM
MDA-MB-468 = assay: NCI 60 cell line screen (Breast Cancer); assay type: cell-based, human; settings: for Growth percentage: MDA-MB-468, single dose 10 µM
[4] = 1 μM, 72 h, read-out: percentage of viable cells

SMILES: COc1ccc(C(c2cc(OC)c(OC)c(OC)c2)n2cncn2)cc1O (stereo not shown) [19e, 5-((1H-1,2,4-Triazol-1-yl)(3,4,5-Trimethoxyphenyl)methyl)-2-Methoxyphenol]
- viability at 1 µM [1]: 29%
- IC50 ([2]; 72 h): 978 ± 130 nM
- IC50 ([2]; Homo sapiens, MDA-MB-231, 72 h): 980 nM
- viability at 48 h, 0.4 µM ([3]; 0.4 μM, 48 h): ~100%
- viability at 48 h, 0.5 µM ([3]; 0.5 μM, 48 h): ~100%
- viability at 24 h, 1 µM ([3]; 1 μM, 24 h, read-out: cell viability): 99%
- viability at 48 h, 1 µM ([3]; 1 μM, 48 h, read-out: percentage of viable cells): > 94%
- viability at 72 h, 1 µM [3, 4]: > 80%
- viability at 48 h, 10 µM ([3]; 10 μM, 48 h, read-out: percentage of viable cells): ~30%
- Mean Growth percentage (NCI 60 cell line panel): 26.24%
- MID TGI (total growth inhibition) (NCI 60 cell line panel; 60 cell lines): 53700 nM
- GI50 (NCI 60 cell line panel; Homo sapiens, 60 cell, NCI 5 dose assay, 60 cell lines, read-out: MG-MID (mean of GI50 values over all cell lines)): 243 nM
- GI50 (HL-60 (TB); Homo sapiens, NCI 5 dose assay): 261 nM
- Growth percentage (HL-60 (TB)): -32.53%
- GI50 (NCI-H23; Homo sapiens, NCI-H23, NCI 5 dose assay): 977 nM
- Growth percentage (NCI-H23): 39.85%
- Growth percentage (HCT-116): 7.25%
- GI50 (HCT-116; Homo sapiens, HCT-116, NCI 5 dose assay): 448 nM
- Growth percentage (HT29): 5.30%
- GI50 (HT29; Homo sapiens, HT-29, HT29, NCI 5 dose assay): 330 nM
- Growth percentage (SNB-75): 48.64%
- GI50 (PC-3; Homo sapiens, PC-3, NCI 5 dose assay): 431 nM
- Growth percentage (PC-3): 21.20%
- Growth percentage (MALME-3M): 70.24%
- GI50 (M14; Homo sapiens, M14, NCI 5 dose assay): 374 nM
- Growth percentage (M14): -1.61%
- GI50 (UACC-62; Homo sapiens, UACC-62, NCI 5 dose assay): 550 nM
- Growth percentage (UACC-62): 32.04%
- GI50 (IGROV1; Homo sapiens, IGROV-1, IGROV1, NCI 5 dose assay): 959 nM
- Growth percentage (IGROV1): 49.22%
- GI50 (OVCAR-8; Homo sapiens, OVCAR-8, NCI 5 dose assay): 1140 nM
- Growth percentage (OVCAR-8): 13.43%
- GI50 (NCI/ADR-RES; Homo sapiens, NCI 5 dose assay): 1180 nM
- Growth percentage (NCI/ADR-RES): 1.80%
- GI50 (SK-OV-3; Homo sapiens, SK-OV-3, NCI 5 dose assay): 402 nM
- Growth percentage (SK-OV-3): 20.25%
- Growth percentage (CAKI-1): 40.43%
- GI50 (CAKI-1; Homo sapiens, CAKI-1, NCI 5 dose assay): 567 nM
- GI50 (MDA-MB-231/ATCC; Homo sapiens, NCI 5 dose assay): 1500 nM
- Growth percentage (MDA-MB-231/ATCC): 43.15%
- GI50 (MDA-MB-468; Homo sapiens, MDA-MB-468, NCI 5 dose assay): 371 nM
- Growth percentage (MDA-MB-468): 7.88%

SMILES: COc1ccc(C(c2cc(OC)c(OC)c(OC)c2)N2CCCC2)cc1 (stereo not shown) [25g]
- viability at 1 µM [1]: 82%
- Mean Growth percentage (NCI 60 cell line panel): 73.14% and 73.1%
- Growth percentage (HL-60 (TB)): 35.51%
- Growth percentage (NCI-H23): 85.27%
- Growth percentage (HCT-116): 62.27%
- Growth percentage (HT29): 40.59%
- Growth percentage (SNB-75): 84.06%
- Growth percentage (PC-3): 63.89%
- Growth percentage (MALME-3M): 85.32%
- Growth percentage (M14): 60.08%
- Growth percentage (UACC-62): 57.35%
- Growth percentage (IGROV1): 82.87%
- Growth percentage (OVCAR-8): 95.58%
- Growth percentage (NCI/ADR-RES): 69.39%
- Growth percentage (SK-OV-3): 77.46%
- Growth percentage (CAKI-1): 77.46%
- Growth percentage (MDA-MB-231/ATCC): 80.82%
- Growth percentage (MDA-MB-468): 54.75%

SMILES: COc1ccc(C(c2cc(OC)c(OC)c(OC)c2)N2CCN(Cc3ccccc3)CC2)cc1 (stereo not shown) [27d]
- Mean Growth percentage (NCI 60 cell line panel): 65.45% and 65.5%
- Growth percentage (HL-60 (TB)): 22.98%
- Growth percentage (NCI-H23): 88.53%
- Growth percentage (HCT-116): 56.66%
- Growth percentage (HT29): 28.31%
- Growth percentage (SNB-75): 92.44%
- Growth percentage (PC-3): 59.28%
- Growth percentage (MALME-3M): 74.83%
- Growth percentage (M14): 52.83%
- Growth percentage (UACC-62): 49.44%
- Growth percentage (IGROV1): 62.96%
- Growth percentage (OVCAR-8): 92.58%
- Growth percentage (NCI/ADR-RES): 61.59%
- Growth percentage (SK-OV-3): 66.24%
- Growth percentage (CAKI-1): 66.73%
- Growth percentage (MDA-MB-231/ATCC): 71.05%
- Growth percentage (MDA-MB-468): 52.99%

SMILES: COc1ccc(C(c2cc(OC)c(OC)c(OC)c2)N2CCCCC2)cc1 (stereo not shown) [26b, 1-((4-Methoxyphenyl)(3,4,5-Trimethoxyphenyl)Methyl)Piperidine]
- viability at 1 µM [1]: 78%
- Mean Growth percentage (NCI 60 cell line panel): 34.17% and 34.2%
- mean growth (NCI 60 cell line panel; breast cancer panel): 30.3%
- mean growth (NCI 60 cell line panel; leukaemia panel): 23.5%
- Growth percentage (HL-60 (TB)): 4.36%
- Growth percentage (NCI-H23): 59.28%
- Growth percentage (HCT-116): 29.08%
- Growth percentage (HT29): 7.93%
- Growth percentage (SNB-75): 26.61%
- Growth percentage (PC-3): 25.08%
- Growth percentage (MALME-3M): 55.25%
- Growth percentage (M14): 23.27%
- Growth percentage (UACC-62): 18.17%
- Growth percentage (IGROV1): 47.13%
- Growth percentage (OVCAR-8): 50.11%
- Growth percentage (NCI/ADR-RES): 23.95%
- Growth percentage (SK-OV-3): 16.68%
- Growth percentage (CAKI-1): 29.22%
- Growth percentage (MDA-MB-231/ATCC): 53.09%
- Growth percentage (MDA-MB-468): 9.32% and 9.3%

SMILES: COc1ccc(C(c2cc(OC)c(OC)c(OC)c2)n2nccn2)cc1O (stereo not shown) [compound 24]
- IC50 ([1]; MCF7, 72 h, alamarBlue, read-out: Antiproliferative Activity MCF-7 Cells IC50): 52 ± 40 nM
- viability at 1 µM [1]: 27%
- IC50 ([2]; Homo sapiens, MDA-MB-231, 72 h): 74 ± 30 nM
- viability at 72 h, 0.1 µM ([3]; 0.1 μM, 72 h, read-out: percentage of viable cells): 96%
- viability at 72 h, 1 µM [3, 4]: 71%
- viability at 72 h, 10 µM ([3]; 10 μM, 72 h, read-out: percentage of viable cells): 61%
